What all share (test): tumor cell line panel, SRB growth assay
Assay type in all cases: cell-based
In general terms: The SRB assay estimates cell density from bound dye.

The subject of assay [1] is UACC-62. The following applies: Homo sapiens; UACC-62, Melanoma, 48 hours. The procedure: (§1) The compound of example 5 was also evaluated against a panel of cancer cell lines (Alley, M.C. et al. […] Cancer Research 48: 589-601; Grever, M. R., et al. (1992) Seminars in Oncology, Vol. 19, No. 6, pp 622-638; Boyd, M. R., and Paull, K. D. (1995) Drug Development Research 34: 91-109). The human tumor cell lines of the cancer screening panel were grown in RPMI 1640 medium containing 5% fetal bovine serum and 2 mM L-glutamine. Cells were inoculated into 96 well microtiter plates in 100 μL at plating densities ranging from 5,000 to 40,000 cells/well depending on the doubling time of individual cell lines. After cell inoculation, the microtiter plates were incubated at 37° C., 5 % CO2, 95 % air and 100 % relative humidity for 24 hours prior to addition of experimental drugs.
(§2) After the 24 hour incubation period, two plates of each cell line were fixed in situ with TCA, to represent a measurement of the cell population for each cell line at the time of drug addition (Tz). Experimental drugs were solubilized in dimethyl sulfoxide at 400-fold the desired final maximum test concentration and stored frozen prior to use. At the time of drug addition, an aliquot of frozen concentrate was thawed and diluted to twice the desired final maximum test concentration with complete medium containing 50 μg/ml gentamicin. Additional four, 10-fold or ½ log serial dilutions were made to provide a total of five drug concentrations plus control. Aliquots of 100 μl of these different drug dilutions were added to the appropriate microtiter wells already containing 100 μl of medium, resulting in the required final drug concentrations.
(§3) Following drug addition, the plates were incubated for an additional 48 hours at 37° C., 5 % CO2, 95 % air, and 100 % relative humidity. For adherent cells, the assay was terminated by the addition of cold TCA. Cells were fixed in situ by the gentle addition of 50 μl of cold 50 % (w/v) TCA (final concentration, 10% TCA) and incubated for 60 minutes at 4° C. The supernatant was discarded, and the plates were washed five times with tap water and air dried. Sulforhodamine B (SRB) solution (100 μl) at 0.4 % (w/v) in 1 % acetic acid were added to each well, and plates were incubated for 10 minutes at room temperature. After staining, unbound dye was removed by washing five times with 1 % acetic acid and the plates were air dried. Bound stain was subsequently solubilized with 10 mM trizma base, and the absorbance was read on an automated plate reader at a wavelength of 515 nm. For suspension of the cells, the methodology used was the same except that the assay was terminated by fixing settled cells at the bottom of the wells by gently adding 50 μl of 80 % TCA (final concentration, 16% TCA). Using the seven absorbance measurements [time zero, (Tz), control growth, (C), and test growth in the presence of drug at the five concentration levels (Ti)], the percentage growth was calculated at each of the drug concentrations levels.
(§4) Percentage growth inhibition was calculated as: [(Ti−Tz)/(C−Tz)]×100 for concentrations for which Ti>/=Tz [(Ti−Tz)/Tz]×100 for concentrations for which Ti<Tz.
(§5) Growth inhibition of 50% (GI50) was calculated from [(Ti−Tz)/(C−Tz)]×100=50, which is the drug concentration resulting in a 50% reduction in the net protein increase (as measured by SRB staining) in control cells during the drug incubation. The G150 was calculated for each of the cell lines if the level of activity is reached; however, if the effect was not reached or is exceeded, the value for that parameter is expressed as greater or less than the maximum (10^−4 M) or minimum (10^−8 M) concentration tested.

Assay [2] has as its system HCT-116. The following applies: Homo sapiens; HCT-116, Colon, 48 hours. The procedure: as §1, §2, §3, §4, §5
For assay [3], the system named is COLO 205. Particulars: Homo sapiens; COLO 205, Colon, 48 hours. The procedure: as §1, §2, §3, §4, §5
For assay [4], the system named is IGR-OV1. The following applies: Homo sapiens, IGROV-1; IGR-OV1, Ovarian, 48 hours. The procedure:
as §1, §2, §3, §4, §5

Assay [5] concerns OVCAR-4. The following applies: Homo sapiens; OVCAR-4, Ovarian, 48 hours. The procedure: as §1, §2, §3, §4, §5
For assay [6], the system named is SNB-75. The following applies: Homo sapiens; SNB-75, CNS, 48 hours. The procedure:
as §1, §2, §3, §4, §5

For assay [7], the system named is NCI-H522. Particulars: Homo sapiens; NCI-H522, Non-Small Cell Lung, 48 hours. The procedure: as §1, §2, §3, §4, §5
Assay [8] concerns SK-OV-3. Particulars: Homo sapiens; SK-OV-3, Ovarian, 48 hours. The procedure: as §1, §2, §3, §4, §5
Assay [9] has as its system HT29. The following applies: Homo sapiens, HT-29; HT29, Colon, 48 hours. The procedure:
as §1, §2, §3, §4, §5

Assay [10] concerns HCT-15. The following applies: Homo sapiens; HCT-15, Colon, 48 hours. The procedure:
as §1, §2, §3, §4, §5

For assay [11], the system named is RPMI-8226. The following applies: Homo sapiens; RPMI-8226, Leukemia, 48 hours. The procedure: as §1, §2, §3, §4, §5
The test system of assay [12] is K-562. The following applies: Homo sapiens, K562; K-562, Leukemia, 48 hours. The procedure:
as §1, §2, §3, §4, §5

Assay [13] has as its system OVCAR-8. The following applies: Homo sapiens; OVCAR-8, Ovarian, 48 hours. The procedure: as §1, §2, §3, §4, §5
Assay [14] deals with EKVX. Particulars: Homo sapiens, Non-Small Cell Lung, 48 hours. The procedure:
as §1, §2, §3, §4, §5

Assay [15] concerns NCI-H23. The following applies: Homo sapiens; NCI-H23, Non-Small Cell Lung, 48 hours. The procedure: as §1, §2, §3, §4, §5
The test system of assay [16] is KM12. Particulars: Homo sapiens; KM12, Colon, 48 hours. The procedure:
as §1, §2, §3, §4, §5

Assay [17] has as its system UACC-257. The following applies: Homo sapiens; UACC-257, Melanoma, 48 hours. The procedure: as §1, §2, §3, §4, §5
Assay [18] has as its system MCF7. Particulars: Homo sapiens; MCF7, Breast, 48 hours. The procedure:
as §1, §2, §3, §4, §5

In assay [19] the test system is SF-295. Particulars: Homo sapiens; SF-295, CNS, 48 hours. The procedure:
as §1, §2, §3, §4, §5

For assay [20], the system named is NCI/ADR-RES. Particulars: Homo sapiens, Breast, 48 hours. The procedure:
as §1, §2, §3, §4, §5

For assay [21], the system named is ACHN. Particulars: Homo sapiens, Renal, 48 hours. The procedure: as §1, §2, §3, §4, §5

With `CO[C@@H]1[C@H](OC(=O)N[C@@H](C(N)=O)C(C)C)CC[C@]2(CO2)[C@H]1[C@@]1(C)O[C@@H]1CC=C(C)C` [Example 5, (1-Carbamoyl-2-methyl-propyl)-carbamic acid-(3R, 4S, 5S, 6R )-5-methoxy-4-[(2R, 3R)-2-methyl-3-(3-methyl-but-2-enyl)-oxiranyl]-1-oxa-spiro[2.5]oct-6-yl ester], the GI50 (as a rule, the concentration at which growth is held to half of that of the control) in assay [1] is below 0.01 µM; in assay [2], below 0.01 µM; in [3], below 0.01 µM; in assay [4], below 0.01 µM; in [5], 36.6 µM; in assay [6] it was 90.9 µM. Also, the concentration for 50% growth inhibition (GI50) in assay [7] was 12.9 µM; in assay [8], 7.37 µM; in assay [9], 16.1 µM; in [10], 7.13 µM; in assay [11] it was below 0.01 µM; in assay [12], 64.4 µM. The concentration for 50% growth inhibition (GI50) in [13] is 18.4 µM; in [14], 20.8 µM; in [15], 6.34 µM; in assay [16], below 0.01 µM; in assay [17], 1.48 µM; in [18], 12.4 µM. Besides, the GI50 was below 0.01 µM in assay [19], 34.2 µM in [20] and below 0.01 µM in assay [21].

These data come from patent US20050059585A1, “Methionine aminopeptidase-2 inhibitors and methods of use thereof” (Praecis Pharmaceuticals Inc., priority 2000, published 2005).
